Source: patent publication US20260048046A1, “METHOD FOR IMPROVING GROWTH PERFORMANCE IN FEEDLOT CATTLE” (Elanco US Inc., priority 2022, published 2026)

System: beef feedlot cattle
Assay: 56-d study: abnormal health observations and removals
Format: in vivo
Description: This example describes a randomized complete block study that evaluated LUB dose (0, 1.5, 3.5, and 5.5 mg kg^−1 dry matter) during the last 56 d of the feeding period on live weight, carcass weight, and associated ratios in beef feedlot cattle. Carcass characteristics, mobility, and health were also evaluated. All cattle received monensin and tylosin throughout the study.
A randomized complete block design was used to evaluate the effects of LUB on calculated growth performance of 2,880 British and Continental European crossbred steers typical for U.S. feedlots. Bos indicus breeding was limited to less than ⅛. The study evaluated four
LUB doses: 0 (control, CON), 1.5, 3.5, and 5.5 mg·kg^−1 DM. There were 12 blocks, each block containing four replicate pens that started LUB feeding on the same date. Steers were randomized within each block of four pens with 60 steers per pen, resulting in a total of 720 steers enrolled in each treatment. LUB feeding started on Jun. 24, 2018, Jul. 1, 2018, and Jul. 15, 2018, four blocks on each date.
During the approximately 10 to 15 d acclimation phase and the entire treatment phase until cattle were loaded for slaughter, all animals were observed by trained caretakers at least once daily, but health issues were only noted by exception. All abnormalities were recorded even if considered common for feedlot cattle. Abnormal health observations were observations that the observer considered as 1) typical for beef cattle at that age, or 2) not causing undue pain or distress to the animal, and/or, 3) not impeding the animal's growth at the time the observation was made. Animals with abnormal health observations were allowed to remain in the study. Animals were allowed to receive concomitant therapies (e.g., antibiotic treatment for respiratory disease and treatment for bloat). Health observations requiring an animal to be classified as “removed” were abnormalities that the observer considered as 1) resulting in pain or distress to the animal, or 2) likely to result in further deterioration of the animal's health, and/or 3) impairing the animal's ability to access food or water at the time of the observation. Animals removed from the study during the treatment or withdrawal phase were penned separately in the research feedlot and tracked through slaughter to assure accountability of all cattle on study per food use authorization or were euthanized and necropsied. Decisions to remove an animal from treatment phase were made by the Investigator or Manager. Animals that were found dead at the time of the observation were removed from the pen as soon as practical and necropsied (if possible).
The label claim variable of cumulative NH3 gas emissions over the treatment period normalized by final BW (with d −59 BW as a covariate) for the period and HCW (g of gas kg^−1 of BW or g of gas kg^−1 HCW) was determined by utilizing NH3 gas emissions equations developed from the LUB clinical effectiveness study (FDA-FOI, 2018) and validated using animals of similar BW as described by Brown et al. (2019). The pen was the experimental unit for each outcome. Differences were deemed significant using a two-sided test at Ptrt≤0.05, however, a less stringent significance threshold of Ptrt≤0.10 was used for abnormal health observations. Fixed effect of treatment and random effects of time replicate and block within time replicate were included in the model. Discrete variables were analyzed using a generalized linear mixed model, Proc GLIMMIX SAS version 9.4 unless there were convergence problems due to sparseness of data. A binomial distribution was assumed and a logit link used in the analysis. Contrasts were constructed between the CON group and each non-CON dosage group, and differences were deemed significant at Pdose≤0.05. […]

[1] = Lubabegron 1.5 mg·kg^−1 DM, 56 d, 720 hd per treatment
[2] = Lubabegron 3.5 mg·kg^−1 DM, 56 d, 720 hd per treatment
[3] = Lubabegron 5.5 mg·kg^−1 DM, 56 d, 720 hd per treatment

CC(C)(Cc1ccc(Oc2ncccc2C#N)cc1)NC[C@H](O)COc1ccccc1-c1cccs1 [LUB, 2-{4-[2-({(2S)-2-Hydroxy-3-[2-(2-thienyl)phenoxy]propyl}amino)-2-methylpropyl]phenoxy}nicotinonitrile]
Abnormal health observations and animal removals, between-treatment differences (CON, 1.5, 3.5, 5.5 mg·kg^−1, 56 d, Ptrt>0.10): No significant (Ptrt>0.10) between-treatment differences | Bloat (gastrointestinal), rate [1]: 0.1% | Bloat (gastrointestinal), total number [1]: 1 | Dead (animals found dead), rate [1]: 0.3% | Dead (animals found dead), total number [1]: 2 | Lameness (musculoskeletal), rate [1]: 1.3% | Lameness (musculoskeletal), total number [1]: 9 | Removals (found dead and removed during treatment phase), rate [1]: 2.5% | Removals (found dead and removed during treatment phase), total number [1]: 18 | Bloat (gastrointestinal), rate [2]: 0.6% | Bloat (gastrointestinal), total number [2]: 4 | Dead (animals found dead), rate [2]: 0.7% | Dead (animals found dead), total number [2]: 5 | Lameness (musculoskeletal), rate [2]: 0.4% | Lameness (musculoskeletal), total number [2]: 3 | Removals (found dead and removed during treatment phase), rate [2]: 1.5% | Removals (found dead and removed during treatment phase), total number [2]: 11 | Bloat (gastrointestinal), rate [3]: 0.3% | Bloat (gastrointestinal), total number [3]: 2 | Lameness (musculoskeletal), rate [3]: 1.0% | Lameness (musculoskeletal), total number [3]: 7 | Pneumonia (respiratory), rate [3]: 0.3% | Pneumonia (respiratory), total number [3]: 2 | Removals (found dead and removed during treatment phase), rate [3]: 1.8% | Removals (found dead and removed during treatment phase), total number [3]: 13
